# Measured values: patent publication US20230077362A1 (CORTEVA AGRISCIENCE LLC, priority 2019, published 2023)
# Like-named read-outs stand apart in the source and are kept apart here.
# Assays:
# [1] = test system: Beet Armyworm (Spodoptera exigua) ("BAW"), second instar larvae; test: Bioassay on beet armyworm (BAW), 128-well diet tray assay; type: in vivo; details: for pest or weed control at 50 µg/cm2: Spodoptera exigua; for BAW rating: Table ABC, species BAW, C = not tested, D = no activity noticed
# Outline: (§1)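 Second-instar larvae on diet in 128-well trays, covered and held at 25° C, 14:10 light-dark, for five to seven days. Percent mortality scored per well and averaged over eight wells; activity reported as a rating category.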
# [2] = test system: Cabbage Looper (Trichoplusia ni) ("CL"), second instar larvae; test: Bioassay on cabbage looper (CL), 128-well diet tray assay; type: in vivo; details: for pest or weed control at 50 µg/cm2: Trichoplusia ni; for CL rating: Table ABC, species CL, C = not tested, D = no activity noticed
# Outline: as §1
# [3] = read-out: BAW (Biological Results, rating)
# [4] = read-out: CL (Biological Results, rating)
compound,measurement,setting,value
"CC(C)c1ccc(N(C)C)cc1N1C(=O)CS/C1=N\C(=O)Nc1ccc(-c2cn(-c3ccc(C(F)(F)F)cn3)cn2)cc1F [Compound J481, (Z)-1-(3-(5-(Dimethylamino)-2-isopropylphenyl)-4-oxothiazolidin-2-ylidene)-3-(2-fluoro-4-(1-(5-(trifluoromethyl)pyridin-2-yl)-1H-imidazol-4-yl)phenyl)urea]",pest or weed control at 50 µg/cm2,[1]; read-out: BAW rating,50 to 100%
same,pest or weed control at 50 µg/cm2,[2]; read-out: CL rating,50 to 100%
"COC(C)c1ccc(C)cc1N1C(=O)CS/C1=N\C(=O)Nc1ccc(-c2ncn(-c3ccc(C(F)(F)F)cn3)n2)cc1C (stereo not drawn) [Compound J286, (Z)-1-(3-(2-(1-Methoxyethyl)-5-methylphenyl)-4-oxothiazolidin-2-ylidene)-3-(2-methyl-4-(1-(5-(trifluoromethyl)pyridin-2-yl)-1H-1,2,4-triazol-3-yl)phenyl)urea]",pest or weed control at 50 µg/cm2,[1]; [3],50 to 100%
same,pest or weed control at 50 µg/cm2,[2]; [4],50 to 100%
"CCOC(C)c1ccc(C)cc1N1C(=O)CS/C1=N\C(=O)Nc1ccc(-c2ncn(-c3ccc(S(F)(F)(F)(F)F)cc3)n2)cc1C#N (stereo not drawn) [Compound J586, (Z)-1-(2-Cyano-4-(1-(4-(pentafluoro-λ^6-sulfaneyl)phenyl)-1H-1,2,4-triazol-3-yl)phenyl)-3-(3-(2-(1-ethoxyethyl)-5-methylphenyl)-4-oxothiazolidin-2-ylidene)urea]",pest or weed control at 50 µg/cm2,[1]; read-out: BAW rating,50 to 100%
same,pest or weed control at 50 µg/cm2,[2]; read-out: CL rating,50 to 100%
"O=C(/N=C1\SCC(=O)N1c1ccccc1N1CCCCC1)Nc1ccc(-c2ncn(-c3ccc(OC(F)(F)F)cc3)n2)cc1F [Compound J198, (Z)-1-(2-Fluoro-4-(1-(4-(trifluoromethoxy)phenyl)-1H-1,2,4-triazol-3-yl)phenyl)-3-(4-oxo-3-(2-(piperidin-1-yl)phenyl)thiazolidin-2-ylidene)urea]",pest or weed control at 50 µg/cm2,[1]; [3],50 to 100%
same,pest or weed control at 50 µg/cm2,[2]; [4],50 to 100%
Cc1ccc(COCC(F)(F)F)c(N2C(=O)CS/C2=N\C(=O)Nc2ccc(-c3ncn(-c4ccc(OC(F)(F)F)cc4)n3)cc2F)c1C [Compound J678],BAW rating,[1],A (50-100)
same,CL rating,[2],A (50-100)
CC(C)c1ccc(N(C)C)cc1N1C(=O)CS/C1=N\C(=O)Nc1ccc(-c2ncn(-c3ccc(C(F)F)cn3)n2)cc1F [Compound J347],"BAW (Biological Results, rating)","[1]; Beet Armyworm (Spodoptera exigua), C = Not Tested",A (50-100)
same,"CL (Biological Results, rating)","[2]; Cabbage Looper (Trichoplusia ni), C = Not Tested",A (50-100)
Cc1ccc(COCC(F)(F)F)c(N2C(=O)CS/C2=N\C(=O)Nc2ccc(-c3ncn(-c4ccccc4)n3)cc2C)c1 [Compound J780],BAW rating,[1],A (50-100)
same,CL rating,[2],A (50-100)
"CN(C)c1ccc(C(F)(F)F)c(N2C(=O)CS/C2=N\C(=O)Nc2ccc(-c3ncn(-c4ccc(OC(F)(F)F)cc4)n3)cc2F)c1 [Compound J182, (Z)-1-(3-(5-(Dimethylamino)-2-(trifluoromethyl)phenyl)-4-oxothiazolidin-2-ylidene)-3-(2-fluoro-4-(1-(4-(trifluoromethoxy)phenyl)-1H-1,2,4-triazol-3-yl)phenyl)urea]",pest or weed control at 50 µg/cm2,[1]; [3],50 to 100%
same,pest or weed control at 50 µg/cm2,[2]; [4],50 to 100%
"COC(C)c1ccc(C)cc1N1C(=O)CS/C1=N\C(=O)Nc1ccc(-c2cn(-c3ccc(C(F)(F)F)cc3)cn2)cc1C (stereo not drawn) [Compound J525, (Z)-1-(3-(2-(1-Methoxyethyl)-5-methylphenyl)-4-oxothiazolidin-2-ylidene)-3-(2-methyl-4-(1-(4-(trifluoromethyl)phenyl)-1H-imidazol-4-yl)phenyl)urea]",pest or weed control at 50 µg/cm2,[1]; read-out: BAW rating,50 to 100%
same,pest or weed control at 50 µg/cm2,[2]; read-out: CL rating,50 to 100%
"Cc1ccc(C(C)C)c(N2C(=O)CS/C2=N\C(=O)Nc2ccc(-c3nnc(-c4ccc(OC(F)(F)F)cc4)s3)cc2F)c1 [Compound J499, (Z)-1-(2-Fluoro-4-(5-(4-(trifluoromethoxy)phenyl)-1,3,4-thiadiazol-2-yl)phenyl)-3-(3-(2-isopropyl-5-methylphenyl)-4-oxothiazolidin-2-ylidene)urea]",pest or weed control at 50 µg/cm2,[1]; read-out: BAW rating,50 to 100%
same,pest or weed control at 50 µg/cm2,[2]; read-out: CL rating,50 to 100%
"CC(C)c1ccc(C#N)cc1N1C(=O)CS/C1=N\C(=O)Nc1ccc(-c2ncn(-c3ccc(S(=O)(=O)C(F)(F)F)cc3)n2)cc1C#N [Compound J413, (Z)-1-(3-(5-Cyano-2-isopropylphenyl)-4-oxothiazolidin-2-ylidene)-3-(2-cyano-4-(1-(4-((trifluoromethyl)sulfonyl)phenyl)-1H-1,2,4-triazol-3-yl)phenyl)urea]",pest or weed control at 50 µg/cm2,[1]; read-out: BAW rating,50 to 100%
same,pest or weed control at 50 µg/cm2,[2]; read-out: CL rating,50 to 100%
"Cc1ccc(COCC(F)(F)F)c(N2C(=O)CS/C2=N\C(=O)Nc2ccc(-c3nnc(-c4ccc(OC(F)(F)F)cc4)s3)cc2F)c1 [Compound J500, (Z)-1-(2-Fluoro-4-(5-(4-(trifluoromethoxy)phenyl)-1,3,4-thiadiazol-2-yl)phenyl)-3-(3-(5-methyl-2-((2,2,2-trifluoroethoxy)methyl)phenyl)-4-oxothiazolidin-2-ylidene)urea]",pest or weed control at 50 µg/cm2,[1]; read-out: BAW rating,50 to 100%
same,pest or weed control at 50 µg/cm2,[2]; read-out: CL rating,50 to 100%
"CC(C)c1ccc(N(C)C)cc1N1C(=O)CS/C1=N\C(=O)Nc1ccc(-c2cn(-c3ccc(OC(F)(F)F)cc3)cn2)cc1F [Compound J474, (Z)-1-(3-(5-(Dimethylamino)-2-isopropylphenyl)-4-oxothiazolidin-2-ylidene)-3-(2-fluoro-4-(1-(4-(trifluoromethoxy)phenyl)-1H-imidazol-4-yl)phenyl)urea]",pest or weed control at 50 µg/cm2,[1]; read-out: BAW rating,50 to 100%
same,pest or weed control at 50 µg/cm2,[2]; read-out: CL rating,50 to 100%
"Cc1ccc(OCC(F)(F)F)c(N2C(=O)CS/C2=N\C(=O)Nc2ccc(-c3ncn(-c4ccc(OC(F)(F)F)cc4)n3)cc2C(F)(F)F)c1 [Compound J115, (Z)-1-(3-(5-Methyl-2-(2,2,2-trifluoroethoxy)phenyl)-4-oxothiazolidin-2-ylidene)-3-(4-(1-(4-(trifluoromethoxy)phenyl)-1H-1,2,4-triazol-3-yl)-2-(trifluoromethyl)phenyl)urea]",pest or weed control at 50 µg/cm2,[1]; [3],50 to 100%
same,pest or weed control at 50 µg/cm2,[2]; [4],50 to 100%
"COC(C)c1ccc(C)cc1N1C(=O)CS/C1=N\C(=O)Nc1ccc(-c2ncn(-c3ccc(OC(F)(F)F)cc3)n2)cc1C (stereo not drawn) [Compound J60, (Z)-1-(3-(2-(1-Methoxyethyl)-5-methylphenyl)-4-oxothiazolidin-2-ylidene)-3-(2-methyl-4-(1-(4-(trifluoromethoxy)phenyl)-1H-1,2,4-triazol-3-yl)phenyl)urea]",pest or weed control at 50 µg/cm2,[1]; [3],50 to 100%
same,pest or weed control at 50 µg/cm2,[2]; [4],50 to 100%
"Cc1ccc(C(C)C)c(N2C(=O)CS/C2=N\C(=O)Nc2ccc(-c3ncn(-c4cccc(C(F)(F)F)c4)n3)cc2F)c1 [Compound J140, (Z)-1-(2-Fluoro-4-(1-(3-(trifluoromethyl)phenyl)-1H-1,2,4-triazol-3-yl)phenyl)-3-(3-(2-isopropyl-5-methylphenyl)-4-oxothiazolidin-2-ylidene)urea]",pest or weed control at 50 µg/cm2,[1]; [3],50 to 100%
same,pest or weed control at 50 µg/cm2,[2]; [4],50 to 100%
"Cc1ccc(C(C)C)c(N2C(=O)CS/C2=N\C(=O)Nc2c(C)cc(-c3ncn(-c4ccc(OC(F)(F)F)cc4)n3)cc2C)c1 [Compound J95, (Z)-1-(2,6-Dimethyl-4-(1-(4-(trifluoromethoxy)phenyl)-1H-1,2,4-triazol-3-yl)phenyl)-3-(3-(2-isopropyl-5-methylphenyl)-4-oxothiazolidin-2-ylidene)urea]",pest or weed control at 50 µg/cm2,[1]; [3],50 to 100%
same,pest or weed control at 50 µg/cm2,[2]; [4],50 to 100%
COc1ccc(C(C)C)c(N2C(=O)CS/C2=N\C(=O)Nc2ccc(-c3ncn(-c4ccc(C(F)F)cn4)n3)cc2F)c1 [Compound J355],pest or weed control at 50 µg/cm2,[1]; [3],50 to 100%
same,pest or weed control at 50 µg/cm2,[2]; [4],50 to 100%
